For assay [1], the system named is mouse IL-10 mRNA. The assay is described as follows: IL-10 mRNA expression in LPS-stimulated mouse bone marrow derived macrophages (real-time PCR). The format is cell-based. To be noted: LPS (1 μg/ml) stimulated mouse BMDM; 1 μM Compound M1 vs 1 μM dasatinib (FIG. 2C). How it is done:
Assay 2: Evaluation of mRNA Expression Levels of IL-10, TNFα, and Arginase-1 in LPS-Stimulated (1 μg/ml) Mouse Bone Marrow Derived Macrophages (BMDM).
Mouse-Bone Marrow Cell Isolation
• Femur bones from healthy mice were collected taking all aseptic precautions. • Bones were severed proximal to each joint using sterile scissors. • A 10 ml syringe with 25-G needle was filled with cold sterile wash medium (DMEM/F12 medium+10% FBS (fetal bovine serum)+1% Penicillin-streptomycin). • The needle was inserted into bone marrow cavity of femur and the cavity was flushed with 2-5 mL of wash medium, until the bone cavity appeared white. • Wash medium was collected in a 50 mL tube and centrifuged at 500×g for 10 minutes at room temperature. • Cells were resuspended in DMEM/F12 medium and cell count was taken. […]
Fold change in the mRNA expression was calculated by 2^−ΔΔCt method and data was plotted using GraphPad Prism.

In assay [2] the test system is MCF-7 cell lines. The assay is described as follows: MTT cell growth inhibition, combination with taxol, MCF-7. It is filed as cell-based. To be noted: combined with taxol, 72 hrs. As to the method: Assay 6: Combination of Compound M1 with Standard Agents in Different Cell Lines
Day 0 • The cells were pelleted and counted. • Cells were plated at desired density (100 μl/well) in complete media in a 96-well plate in triplicates. A column for Day “0” reading was also seeded. (18-20 hrs after initial plating and before addition of the inhibitors) • Plates were incubated at 37° C. and 5% CO2. Day 1 • 10 μl of MTT (5 mg/ml) were added to the column designated for Day “0”. It was mixed well and incubated at 37° C. and 5% CO2 for 3.5 h. Cells were pelleted down at 4000 rpm for 10 minutes. • Media was aspirated out and 150 μl of DMSO were added to the cells and mixed by pipetting to dissolve the crystals • The plate was read at A560 nm and A640 nm. Day 2 • A series of dilutions of the inhibitors were initially made in 100% DMSO and further diluted in growth medium. • Cells were treated with either single agent of DMSO, compound M1, taxol, and a combination of compound M1 and taxol (MDA-MB-231, MCF-7, ZR.75.1 and SK-OV-3). […] Crystals were dissolved by repeated pipetting. • The plate was read at A560 nm and A640 nm. […]
(§1) Reference absorbance values were subtracted from test absorbance values. Day 0 values were subtracted from final day absorbance values for determining cell growth. % Cell growth inhibitions were calculated.

Assay [3] relates to HuT-78 cell lines. Kind of assay: MTT cell growth inhibition, combination with romidepsin, HuT-78. To be noted: combined with romedepsin, 72 hrs. The format is cell-based. As to the method:
Assay 5: Combination of Compound M1 with Standard Agents in HuT-78 Cell Lines
Day 0 • The HuT-78 cells were pelleted and counted. • Cells were plated at desired density (100 μl/well) in complete media in a 96-well plate in triplicates. A column for Day “0” reading was also seeded. (18-20 hrs after initial plating and before addition of the inhibitors) • Plates were incubated at 37° C. and 5% CO2. Day 1 • 10 μl of MTT (5 mg/ml) were added to the column designated for Day “0”. It was mixed well and incubated at 37° C. and 5% CO2 for 3.5 hours. Cells were pelleted down at 4000 rpm for 10 minutes. • Media was aspirated out and 150 μl of DMSO were added to the cells and mixed by pipetting to dissolve the crystals • The plate was read at A560 nm and A640 nm. Day 2 • A series of dilutions of the inhibitors were initially made in 100% DMSO and further diluted in growth medium. • Cells were treated with either single agent of DMSO, compound M1, romidepsin, or a combination of compound M1 and romidepsin (HuT-78). […] Crystals were dissolved by repeated pipetting. • The plate was read at A560 nm and A640 nm. […]
as §1

Assay [4] has as its target SIK3 (human) (Homo sapiens, UniProt Q9Y2K2). Kind of assay: Enzymatic radiometric assay against human salt-inducible kinase-3 (SIK3). It is filed as biochemical. How it is done: Assay 1: Determination of IC50 of Compound M1 Against Human Salt-Inducible Kinase-3 (SIK3) Using an Enzymatic Radiometric Assay
• SIK3 (human) was incubated with 8 mM MOPS pH 7.0, 0.2 mM EDTA, 100 uM of the peptide […] (Substrate), 10 mM Mg Acetate and [gamma-33P-ATP] (specific activity and concentration as required) in the presence of Compound M1. • The reaction was initiated by the addition of the Mg/ATP mix. • After incubation for 40 minutes at room temperature, the reaction was stopped by the addition of phosphoric acid to a concentration of 0.5%. • 10 μL of the reaction mixture was then spotted onto a P30 filtermat and washed four times for 4 minutes in 0.425% phosphoric acid and once in methanol prior to drying and scintillation counting. • The IC50 value was calculated using GraphPad Prism.

Sequence of SIK3 (human) (Q9Y2K2 whole entry): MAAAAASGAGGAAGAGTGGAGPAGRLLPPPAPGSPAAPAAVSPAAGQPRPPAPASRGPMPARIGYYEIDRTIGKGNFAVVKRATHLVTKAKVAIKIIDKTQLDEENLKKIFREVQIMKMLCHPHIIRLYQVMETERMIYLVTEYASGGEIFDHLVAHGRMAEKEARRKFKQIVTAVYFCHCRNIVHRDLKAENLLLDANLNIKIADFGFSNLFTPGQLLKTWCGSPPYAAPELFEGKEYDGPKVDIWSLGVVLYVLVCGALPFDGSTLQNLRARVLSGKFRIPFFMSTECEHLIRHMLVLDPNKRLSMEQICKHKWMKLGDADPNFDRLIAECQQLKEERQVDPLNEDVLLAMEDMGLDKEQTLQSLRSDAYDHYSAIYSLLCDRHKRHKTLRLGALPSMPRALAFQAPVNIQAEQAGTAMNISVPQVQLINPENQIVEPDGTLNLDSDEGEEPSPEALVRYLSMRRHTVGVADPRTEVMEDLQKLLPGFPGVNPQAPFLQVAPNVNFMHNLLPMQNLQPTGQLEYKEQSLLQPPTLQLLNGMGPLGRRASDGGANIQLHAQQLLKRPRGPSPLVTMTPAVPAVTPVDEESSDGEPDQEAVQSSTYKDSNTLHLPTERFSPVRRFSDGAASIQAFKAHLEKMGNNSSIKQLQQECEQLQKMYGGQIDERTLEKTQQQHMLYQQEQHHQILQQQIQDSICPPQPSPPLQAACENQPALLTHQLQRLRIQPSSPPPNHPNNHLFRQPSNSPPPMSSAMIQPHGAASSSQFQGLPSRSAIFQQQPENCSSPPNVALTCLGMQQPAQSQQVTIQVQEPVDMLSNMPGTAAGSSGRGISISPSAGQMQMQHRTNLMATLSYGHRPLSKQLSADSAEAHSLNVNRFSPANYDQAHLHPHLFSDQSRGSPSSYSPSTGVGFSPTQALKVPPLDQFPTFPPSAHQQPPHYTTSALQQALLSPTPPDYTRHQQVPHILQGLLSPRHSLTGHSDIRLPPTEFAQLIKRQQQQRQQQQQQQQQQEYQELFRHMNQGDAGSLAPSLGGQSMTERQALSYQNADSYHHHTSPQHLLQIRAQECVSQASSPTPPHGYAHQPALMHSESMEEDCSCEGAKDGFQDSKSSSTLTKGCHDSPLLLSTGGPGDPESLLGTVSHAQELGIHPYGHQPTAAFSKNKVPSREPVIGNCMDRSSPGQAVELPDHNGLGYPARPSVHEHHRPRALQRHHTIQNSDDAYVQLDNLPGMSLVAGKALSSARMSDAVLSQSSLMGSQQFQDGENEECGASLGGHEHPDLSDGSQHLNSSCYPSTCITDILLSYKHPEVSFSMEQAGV

With `CC[C@H](Nc1ncnc2[nH]c(O)nc12)c1oc2ccccc2c(=O)c1-c1cccc(F)c1` [Compound M1, (S)-3-(3-fluorophenyl)-2-(1-((8-hydroxy-9H-purin-6-yl)amino)propyl)-4H-chromen-4-one], the “mouse IL-10 mRNA expression, potency relative to dasatinib” value in assay [1] was “equally potent as dasatinib”. Moreover, the “cell growth inhibition in combination” value in assay [2] and in assay [3] was “synergistic results” throughout. In addition, the “activity against salt-inducible kinase 3 (SIK3)” value in assay [4] was “exhibit activity”. Also, the “SIK-3 inhibitory potency compared among compounds M, M1 and M2” value in assay [4] (of the three compounds M, M1 and M2) is “most potent SIK-3 inhibitor”.
